Molecules are shown by their SMILES. “And” between values parts separate entries of the source, which are not always exact repeats. Equal values may be shown once.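 Exposure lasted 48 hours, with cells grown in 96-well plates and compounds tested at five concentrations. Here, GI50 denotes the concentration required for 50% inhibition of growth. TGI marks complete inhibition of growth.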

Some test systems named below: CCRF-CEM leukemia; OVCAR-4 ovarian; SNB-19 CNS; SR leukemia; K-562 leukemia; SF-268 CNS; MDA-MB-231 breast; ACHN renal.
Common to all, as to test: growth of human tumour cells (NCI), 48 h

Consider `COC(=O)[C@H]1CCCN1C(=O)[C@H]1CCCN1C(=O)[C@H](Cc1c[nH]c2ccccc12)NC(=S)Nc1cc(C(F)(F)F)cc(C(F)(F)F)c1`, for which the GI50 in the assay on CCRF-CEM leukemia is 7230 nM; with OVCAR-4 ovarian, 6490 nM; in the assay with SNB-19 CNS, 9490 nM; with SR leukemia, 3670 nM; with K-562 leukemia it was 5710 nM; in the assay with SF-268 CNS, 8200 nM. Further, the GI50 is 2180 nM in the assay on MDA-MB-231 breast and 4120 nM in the assay on ACHN renal. The TGI in the assay with CCRF-CEM leukemia, with OVCAR-4 ovarian, with SNB-19 CNS, in the assay on SR leukemia, in the assay on K-562 leukemia and with SF-268 CNS was over 100000 nM throughout. For the same molecule, the TGI with MDA-MB-231 breast was 5250 nM; in the assay with ACHN renal, over 100000 nM.
Turning to `CC[C@H](C)[C@H](NC(=O)[C@H]1CCCCN1C)C(=O)N(C)[C@H](C[C@@H](OC(C)=O)c1nc(C(=O)N[C@@H](Cc2ccccc2)C[C@H](C)C(=O)O)cs1)C(C)C`, the GI50 is 0.392 nM and 1.65 nM in the assay with CCRF-CEM leukemia; 0.595 nM and 1.65 nM in the assay with SNB-19 CNS; 0.305 nM and 1.65 nM in the assay with SR leukemia; 0.327 nM and 1.65 nM in the assay with K-562 leukemia; 0.834 nM and 1.65 nM with SF-268 CNS; 2.01 nM and 1.65 nM in the assay with MDA-MB-231 breast. The GI50 in the assay with ACHN renal is 4.81 nM and 1.65 nM. For the same molecule, the TGI with CCRF-CEM leukemia is 2490 nM; in the assay on OVCAR-4 ovarian it was over 16500 nM; in the assay with SNB-19 CNS, over 16500 nM; in the assay with SR leukemia, over 16500 nM; in the assay with K-562 leukemia it was over 16500 nM; in the assay on SF-268 CNS, over 16500 nM. For the same molecule, the TGI with MDA-MB-231 breast and in the assay with ACHN renal was over 16500 nM each time.
For `Cn1cc(C2=C(c3cn(CCCCCSC(=N)N)c4ccccc34)C(=O)NC2=O)c2ccccc21`, the GI50 in the assay with CCRF-CEM leukemia is 1930 nM; in the assay on OVCAR-4 ovarian, 3160 nM; in the assay with SNB-19 CNS, 3520 nM; in the assay with SR leukemia, 790 nM; in the assay with K-562 leukemia, 1490 nM; with SF-268 CNS it was 3860 nM. Further, the figures for the GI50 in the assay on MDA-MB-231 breast and in the assay with ACHN renal were 3910 nM and 3540 nM, respectively. The TGI with CCRF-CEM leukemia stood at 5870 nM; with OVCAR-4 ovarian it was 7320 nM; in the assay with SNB-19 CNS, 6820 nM; in the assay on SR leukemia it was 2240 nM; with K-562 leukemia it was 5310 nM; in the assay on SF-268 CNS it was 7800 nM. The TGI was found to be 7490 nM in the assay with MDA-MB-231 breast and 6940 nM in the assay on ACHN renal.
For `CN(Cc1cnc2nc(N)nc(N)c2n1)c1ccc(C(=O)NC(CCC(=O)O)C(=O)O)cc1Br` (centres undefined), the GI50 in the assay on CCRF-CEM leukemia was under 10 nM; in the assay with OVCAR-4 ovarian, 13700 nM; in the assay with SNB-19 CNS, under 10 nM; in the assay on SR leukemia it was under 10 nM; in the assay on K-562 leukemia it was under 10 nM; in the assay on SF-268 CNS it was under 10 nM. Further, the GI50 was 6020 nM in the assay on MDA-MB-231 breast and under 10 nM with ACHN renal. In addition, the TGI with CCRF-CEM leukemia is over 44500 nM; with OVCAR-4 ovarian, over 100000 nM; in the assay with SNB-19 CNS it was over 100000 nM; with SR leukemia, 8490 nM; with K-562 leukemia, over 100000 nM; with SF-268 CNS, 13100 nM. The TGI in the assay on MDA-MB-231 breast and in the assay with ACHN renal was over 100000 nM throughout.
Turning to `O=C1/C=C/[C@@H](O)[C@@H]2C[C@@H](O)C[C@H]2/C=C/CCC[C@H](C(F)(F)F)O1`, the GI50 is 205 nM in the assay on CCRF-CEM leukemia; 139 nM with OVCAR-4 ovarian; 6980 nM with SNB-19 CNS; 199 nM in the assay with SR leukemia; 336 nM in the assay with K-562 leukemia; 403 nM with SF-268 CNS. In addition, the GI50 was 268 nM in the assay with MDA-MB-231 breast and 197 nM in the assay on ACHN renal. For the same molecule, the TGI is 916 nM in the assay with CCRF-CEM leukemia; over 100000 nM with OVCAR-4 ovarian; over 100000 nM in the assay on SNB-19 CNS; 591 nM in the assay on SR leukemia; over 69100 nM in the assay on K-562 leukemia; over 77800 nM with SF-268 CNS. The same molecule gave a TGI with MDA-MB-231 breast of 774 nM.
Take `CCCCCCCCCCCC[n+]1ccc2ccccc2c1`: the GI50 in the assay on CCRF-CEM leukemia was 317 nM; with OVCAR-4 ovarian it was 486 nM; with SNB-19 CNS, 995 nM; with SR leukemia, 750 nM; with K-562 leukemia, 247 nM; with SF-268 CNS, 1220 nM. The GI50 with MDA-MB-231 breast was 1280 nM; in the assay on ACHN renal it was 1890 nM. Moreover, the TGI came to 2090 nM in the assay with CCRF-CEM leukemia; 2330 nM in the assay on OVCAR-4 ovarian; 2220 nM in the assay with SNB-19 CNS; 2570 nM with SR leukemia; 1960 nM in the assay on K-562 leukemia; 2570 nM in the assay with SF-268 CNS. Also, the TGI in the assay with MDA-MB-231 breast was 2850 nM; with ACHN renal it was 7560 nM.
Regarding `C=C1C(=O)OC2/C=C(/C)C(OC(C)=O)C/C=C(\C)C(OC(=O)C3(C)OC3C)C(O)C12` (centres undefined), the TGI in the assay on CCRF-CEM leukemia, in the assay with OVCAR-4 ovarian, with SNB-19 CNS, with SR leukemia, in the assay on K-562 leukemia and with SF-268 CNS was over 100000 nM each time. For the same molecule, the TGI in the assay on MDA-MB-231 breast and with ACHN renal was over 100000 nM throughout.
With `CCCCCCCCCCCCCC[C@@H](O)[C@H]1CC[C@H]([C@H]2CC[C@H]([C@H](O)CCCCCC[C@@H](O)CC3=C[C@H](C)OC3=O)O2)O1`, the GI50 in the assay with CCRF-CEM leukemia was 2060 nM; in the assay on SNB-19 CNS, 1750 nM; in the assay on SR leukemia, 5880 nM; in the assay with K-562 leukemia it was 1470 nM; in the assay on SF-268 CNS, 1690 nM; with MDA-MB-231 breast, 2310 nM. In addition, the GI50 in the assay on ACHN renal is 1020 nM. The TGI in the assay on CCRF-CEM leukemia was over 25000 nM; in the assay with OVCAR-4 ovarian it was over 25000 nM; with SNB-19 CNS, 7710 nM and > 25000 nM; with SR leukemia, 6050 nM and > 25000 nM; with K-562 leukemia, over 25000 nM; in the assay on SF-268 CNS, 5040 nM and > 25000 nM. The TGI in the assay on MDA-MB-231 breast was 8900 nM and > 25000 nM.
In the case of `CCOC(=O)COc1ccc2c(C)cc(=O)oc2c1`, the TGI in the assay on CCRF-CEM leukemia, in the assay on OVCAR-4 ovarian, with SNB-19 CNS, with SR leukemia, with K-562 leukemia and with SF-268 CNS was over 100000 nM each time. The TGI in the assay on MDA-MB-231 breast and in the assay with ACHN renal was over 100000 nM in each case.
Consider `COc1cc(-c2nn(-c3cccc(NC(=O)c4ccc(Cl)c(C(F)(F)F)c4)c3)cc2-c2ccncc2)ccc1Cl`, for which the GI50 was 1770 nM in the assay with CCRF-CEM leukemia; 6260 nM in the assay on OVCAR-4 ovarian; 7640 nM in the assay with SNB-19 CNS; 809 nM with SR leukemia; 1210 nM with K-562 leukemia; 3240 nM in the assay on SF-268 CNS. Further, the GI50 in the assay on MDA-MB-231 breast was 1440 nM; with ACHN renal, 1910 nM. Moreover, the TGI is over 32500 nM with CCRF-CEM leukemia; over 32500 nM with OVCAR-4 ovarian; over 32500 nM in the assay with SNB-19 CNS; over 10200 nM with SR leukemia; over 32500 nM in the assay on K-562 leukemia; over 32500 nM with SF-268 CNS. Moreover, the TGI in the assay with MDA-MB-231 breast and in the assay with ACHN renal was over 32500 nM throughout.
On to `COc1cc2c(=O)[nH]c3cc([N+](=O)[O-])ccc3c2cc1[N+](=O)[O-]`, for which the GI50 was 3990 nM with CCRF-CEM leukemia; 5160 nM in the assay on OVCAR-4 ovarian; 24100 nM in the assay with SNB-19 CNS; 2950 nM in the assay with SR leukemia; 5970 nM in the assay on K-562 leukemia; 4420 nM with SF-268 CNS. For the same molecule, the results for the GI50 in the assay with MDA-MB-231 breast and with ACHN renal were 6100 nM and 3710 nM, respectively. The TGI in the assay on CCRF-CEM leukemia was over 100000 nM; in the assay with OVCAR-4 ovarian, over 100000 nM; in the assay with SNB-19 CNS, over 100000 nM; with SR leukemia it was over 100000 nM; in the assay with K-562 leukemia, over 100000 nM; in the assay with SF-268 CNS, 88000 nM. Further, the TGI in the assay on MDA-MB-231 breast was over 100000 nM; in the assay on ACHN renal, 91400 nM.
On to `COc1nnc2ccc(N3CCC(c4ccc(OCCN5CCN(C)C(=O)[C@H]5C)cc4)CC3)nn12`, for which the GI50 with CCRF-CEM leukemia was 323 nM; in the assay on OVCAR-4 ovarian, 106 nM; in the assay on SNB-19 CNS, 224 nM; with SR leukemia it was 19.8 nM; in the assay with K-562 leukemia it was 75.5 nM; in the assay on SF-268 CNS it was 1690 nM. Further, the GI50 in the assay on MDA-MB-231 breast is 75.1 nM; with ACHN renal, 172 nM. Further, the TGI with CCRF-CEM leukemia, in the assay on OVCAR-4 ovarian, in the assay on SNB-19 CNS, in the assay with SR leukemia, with K-562 leukemia and with SF-268 CNS was over 100000 nM each time. The TGI in the assay on MDA-MB-231 breast and with ACHN renal was over 100000 nM in each case.
On to `NC(=S)c1c(N)n(C2OC(CO)C(O)C2O)c2ncnc(N)c12` (centres undefined), for which the GI50 is 241 nM with CCRF-CEM leukemia; 264 nM in the assay with OVCAR-4 ovarian; 962 nM in the assay on SNB-19 CNS; 63.6 nM in the assay on SR leukemia; 62.2 nM in the assay on K-562 leukemia; 425 nM with SF-268 CNS. Moreover, the GI50 in the assay on MDA-MB-231 breast is 333 nM; in the assay on ACHN renal it was 268 nM. Also, the TGI is 773 nM in the assay with CCRF-CEM leukemia; over 100000 nM with OVCAR-4 ovarian; over 100000 nM in the assay on SNB-19 CNS; 403 nM in the assay with SR leukemia; 494 nM in the assay on K-562 leukemia; 4520 nM with SF-268 CNS. For the same molecule, the TGI in the assay on MDA-MB-231 breast and with ACHN renal was over 100000 nM each time.
In the case of `CCC(=O)c1c(C(F)(F)F)n([O-])c2cc(F)c(F)cc2[n+]1=O`, the GI50 was 108 nM with CCRF-CEM leukemia; 1830 nM with OVCAR-4 ovarian; 1350 nM in the assay with SNB-19 CNS; 60.7 nM with SR leukemia; 154 nM in the assay with K-562 leukemia; 1400 nM with SF-268 CNS. Moreover, the GI50 is 594 nM in the assay on MDA-MB-231 breast and 1250 nM in the assay with ACHN renal. Besides, the TGI in the assay on CCRF-CEM leukemia is 555 nM; in the assay with OVCAR-4 ovarian, 4100 nM; in the assay with SNB-19 CNS, 3910 nM; in the assay with SR leukemia it was 263 nM; in the assay on K-562 leukemia it was over 100000 nM; in the assay on SF-268 CNS, 3210 nM. Moreover, the TGI in the assay with MDA-MB-231 breast is 1490 nM; in the assay on ACHN renal, 2660 nM.

Values taken from PubChem BioAssay (NCI).
